Measurements as given in patent US12583825B2, “Benzo[h]quinazolin-4-amine and thieno[3,2-h]quinazolin-4-amine derivatives for the treatment of cancer” (Redona Therapeutics, Inc., priority 2020, dated 2026).

Columns and labels:
[1] = biological target: T1, recombinant human CLK3 (Homo sapiens, UniProt P49761); test: CLK3 kinase assay (LANCE Ultra); assay type: biochemical; details: 0.5 nM CLK3, 300 μM ATP, 3 hours at 30° C.
T1 construct: purchased Thermo Fisher Scientific PV3826
Experimental: CLK3 kinase activity was measured using the LANCE® Ultra technology (PerkinElmer) essentially as recommended by the supplier. Briefly, 2.5 μL of test sample at 4× the desired final concentration in 4% DMSO were dispensed into white, low volume, round bottom, 384 well plates (Corning, cat. no. 4512). 5 μL of a mixture containing recombinant human CLK3 (Thermo Fisher Scientific, cat. no. PV3826) and the labeled peptide substrate ULight™-CREBtide (PerkinElmer, cat. no. TRF0107) prepared in 1.33× kinase buffer (Thermo Fisher Scientific, cat. no. PV3189) were then added. Finally, the reactions were started by adding 2.5 μL of a 4× solution of ATP in kinase buffer. The plates were sealed with adhesive foils and incubated for 3 hours at 30° C. in the dark. The final concentrations of CLK3, ULight™—CREBtide, and ATP were 0.5 nM, 50 nM, and 300 μM, respectively. 5 μL of 40 mM EDTA were then added to terminate the reactions. The Eu-anti-phospho-CREB antibody (PerkinElmer, cat. no. TRF0200) diluted in LANCE® detection buffer (PerkinElmer, cat. no. CR97) was then added to a final concentration of 2 nM and the reactions were incubated for 1 hour at room temperature in the dark. The signals were measured using a Synergy 4 reader (BioTek) with a 320/80 nm filter for the excitation and 620/10 nm and 665/8 nm filters for the donor and acceptor emission, respectively. […] IC50 values were calculated by fitting the concentration-response data to a sigmoidal 4-parameter logistic model.

[2] = tested on: MDA-MB-231 cells; test: MDA-MB-231 proliferation assay; assay type: cell-based; details: Homo sapiens, 72 hours, YO-PRO-1 readout
Experimental: MDA-MB-231 Proliferation Assay
MDA-MB-231 cells were cultivated in DMEM High Glucose (4.5 g/L) with L-Glutamine (BioConcept, cat. no. 1-26F03-I) supplemented with 1% Na-pyruvate (Sigma, cat. no. S8636), 1% Penicillin-Streptomycin (BioConcept, cat. no. 4-01F00H), and 10% FBS (Sigma, cat. no. F9665) using standard techniques. Cells were seeded in black, clear-bottom 384 well plates for tissue culture (Greiner Bio-One, cat. no. 781091) at a density of 750 cells per well in 20 μL medium and the plates were incubated overnight at 37° C. with 5% CO2 prior to treatment. Experimental compounds were serially diluted in DMSO to 200× the desired final concentrations. The solutions were then diluted 1:40 with culture medium and 5 μL aliquots were mixed into the wells containing the cells. The final concentration of DMSO was 0.5%. The plates were incubated for 72 hours and cell numbers were then measured using YO-PRO™-1 Iodide (ThermoFisher Scientific, cat. no. Y3603) essentially as recommended by the manufacturer. […] The plates were incubated at room temperature in the dark for 30 minutes. Fluorescence intensity signals were then measured on a Synergy 4 reader (BioTek) using 485/20 nm and 530/25 nm filters for the excitation and emission, respectively. Relative proliferation values were calculated by normalizing the raw data using DMSO-treated cells (100% proliferation) and the signals obtained from cells that were evaluated at the time of compound addition (0% proliferation). The concentration-response data were fitted to a sigmoidal 4-parameter logistic model with the maximum constrained to 100%.

T1 sequence (P49761 whole entry): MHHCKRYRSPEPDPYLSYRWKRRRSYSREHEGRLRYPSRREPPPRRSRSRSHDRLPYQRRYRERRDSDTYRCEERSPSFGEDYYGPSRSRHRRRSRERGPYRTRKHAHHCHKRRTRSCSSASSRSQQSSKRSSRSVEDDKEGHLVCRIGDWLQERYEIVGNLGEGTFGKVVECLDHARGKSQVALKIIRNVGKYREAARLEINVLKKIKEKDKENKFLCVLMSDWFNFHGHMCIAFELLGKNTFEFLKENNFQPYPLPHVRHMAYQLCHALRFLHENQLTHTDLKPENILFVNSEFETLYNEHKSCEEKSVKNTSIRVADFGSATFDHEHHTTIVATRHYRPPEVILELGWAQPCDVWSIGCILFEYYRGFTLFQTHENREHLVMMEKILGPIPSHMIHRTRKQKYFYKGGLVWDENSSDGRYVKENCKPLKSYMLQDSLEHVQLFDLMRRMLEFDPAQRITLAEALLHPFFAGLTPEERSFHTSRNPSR

IC50 [1] | GI50 [2] | SMILES
34.5 nM | 691 nM | CC1(C)/C(=N/OCC#N)c2cc(O[C@H]3CC[C@H](N)CC3)ccc2-c2ncnc(N)c21 [Example 22, [(Z)-[4-amino-8-(trans-4-aminocyclohexoxy)-5,5-dimethyl-benzo[h]quinazolin-6-ylidene]amino]oxyacetonitrile]
26.5 nM | 647 nM | CCOC(=O)CCO/N=C1\c2cc(O[C@H]3CC[C@H](N)CC3)ccc2-c2ncnc(N)c2C1(C)C [Example 23, ethyl 3-[(Z)-[4-amino-8-(trans-4-aminocyclohexoxy)-5,5-dimethyl-benzo[h]quinazolin-6-ylidene]amino]oxypropanoate]
151 nM | 1600 nM | Cc1noc(C)c1CO/N=C1\c2cc(O[C@H]3CC[C@H](N)CC3)ccc2-c2ncnc(N)c2C1(C)C [Example 25, (6Z)-8-(trans-4-aminocyclohexoxy)-6-[(3,5-dimethylisoxazol-4-yl)methoxyimino]-5,5-dimethyl-benzo[h]quinazolin-4-amine]
42.6 nM | 1360 nM | CC1(C)/C(=N/OCCCOCc2ccccc2)c2cc(O[C@H]3CC[C@H](N)CC3)ccc2-c2ncnc(N)c21 [Example 26, (6Z)-8-(trans-4-aminocyclohexoxy)-6-(3-benzyloxypropoxyimino)-5,5-dimethyl-benzo[h]quinazolin-4-amine]
279 nM | > 2000 nM | CC1(C)/C(=N/OCCN2CCCC2)c2cc(O[C@H]3CC[C@H](N)CC3)ccc2-c2ncnc(N)c21 [Example 28, (6Z)-8-(trans-4-aminocyclohexoxy)-5,5-dimethyl-6-(2-pyrrolidin-1-ylethoxyimino)benzo[h]quinazolin-4-amine]
76.2 nM | 1580 nM | COC(=O)CO/N=C1\c2cc(O[C@H]3CC[C@H](N)CC3)ccc2-c2ncnc(N)c2C1(C)C [Example 31, methyl 2-[(Z)-[4-amino-8-(trans-4-aminocyclohexoxy)-5,5-dimethyl-benzo[h]quinazolin-6-ylidene]amino]oxyacetate]
29.6 nM | 1490 nM | CC1(C)/C(=N/OCC(N)=O)c2cc(O[C@H]3CC[C@H](N)CC3)ccc2-c2ncnc(N)c21 [Example 32, 2-[(Z)-[4-amino-8-(trans-4-aminocyclohexoxy)-5,5-dimethyl-benzo[h]quinazolin-6-ylidene]amino]oxyacetamide]
23.3 nM | 1190 nM | CNC(=O)CO/N=C1\c2cc(O[C@H]3CC[C@H](N)CC3)ccc2-c2ncnc(N)c2C1(C)C [Example 33, 2-[(Z)-[4-amino-8-(trans-4-aminocyclohexoxy)-5,5-dimethyl-benzo[h]quinazolin-6-ylidene]amino]oxy-N-methyl-acetamide]
10.9 nM | 620 nM | CC1(C)/C(=N/OCC2CNC(=O)O2)c2cc(O[C@H]3CC[C@H](N)CC3)ccc2-c2ncnc(N)c21 (stereo partly drawn) [Example 34, 5-[[(Z)-[4-amino-8-(trans-4-aminocyclohexoxy)-5,5-dimethyl-benzo[h]quinazolin-6-ylidene]amino]oxymethyl]oxazolidin-2-one]
144 nM | 1480 nM | CN(C)CCO/N=C1\c2cc(O[C@H]3CC[C@H](N)CC3)ccc2-c2ncnc(N)c2C1(C)C [Example 35, (6Z)-8-(trans-4-aminocyclohexoxy)-6-[2-(dimethylamino)ethoxyimino]-5,5-dimethyl-benzo[h]quinazolin-4-amine]
56.4 nM | 1150 nM | CO/N=C1\c2cc(O[C@H]3CC[C@H](N)CC3)sc2-c2ncnc(N)c2C1(C)C [Example 36, (6Z)-8-(trans-4-aminocyclohexoxy)-6-methoxyimino-5,5-dimethyl-thieno[3,2-h]quinazolin-4-amine]
59 nM | > 2000 nM | CC1(C)/C(=N/OC[C@H]2CNC(=O)O2)c2cc(O[C@H]3CC[C@H](N)CC3)ccc2-c2ncnc(N)c21 [Example 37, (5R)-5-[[(Z)-[4-amino-8-(trans-4-aminocyclohexoxy)-5,5-dimethyl-benzo[h]quinazolin-6-ylidene]amino]oxymethyl]oxazolidin-2-one]
92.8 nM | > 2000 nM | CO/N=C1\c2cc(OC)c(Cl)cc2-c2ncnc(N)c2C1(C)C [Example 41, (6Z)-9-chloro-8-methoxy-6-methoxyimino-5,5-dimethyl-benzo[h]quinazolin-4-amine]
90.5 nM | > 2000 nM | CO/N=C1\c2c(ccc(OC)c2Cl)-c2ncnc(N)c2C1(C)C [Example 43, (6Z)-7-chloro-8-methoxy-6-methoxyimino-5,5-dimethyl-benzo[h]quinazolin-4-amine]
15.8 nM | > 2000 nM | CO/N=C1\c2cc(N(C)[C@H]3CC[C@H](N)CC3)ccc2-c2ncnc(N)c2C1(C)C [Example 44, (6Z)—N8-(trans-4-aminocyclohexyl)-6-methoxyimino-N8,5,5-trimethyl-benzo[h]quinazoline-4,8-diamine]
104 nM | 1460 nM | CO/N=C1/c2cc(O[C@H]3CC[C@H](N)CC3)ccc2-c2ncnc(N)c2C1(C)C [Example 45, (6E)-8-(trans-4-aminocyclohexoxy)-6-methoxyimino-5,5-dimethyl-benzo[h]quinazolin-4-amine]
12.7 nM | 470 nM | CC1(C)/C(=N\O)c2cc(O[C@H]3CC[C@H](N)CC3)ccc2-c2ncnc(N)c21 [Example 46, (6E)-4-amino-8-(trans-4-aminocyclohexoxy)-5,5-dimethyl-benzo[h]quinazolin-6-one oxime]
77.3 nM | 443 nM | C=C(c1ccc2c(c1)/C(=N/OC)C(C)(C)c1c(N)ncnc1-2)[C@H]1CC[C@H](N)CC1 [Example 47, (6E)-8-[1-(trans-4-aminocyclohexyl)vinyl]-6-methoxyimino-5,5-dimethyl-benzo[h]quinazolin-4-amine]
4.9 nM | > 2000 nM | CO/N=C1/c2c(ccc(OC)c2Cl)-c2ncnc(N)c2C1(C)C [Example 48, (6E)-7-chloro-8-methoxy-6-methoxyimino-5,5-dimethyl-benzo[h]quinazolin-4-amine]
14.4 nM | > 2000 nM | CO/N=C1/c2c(ccc(OC)c2N)-c2ncnc(N)c2C1(C)C [Example 49, (6E)-8-methoxy-6-methoxyimino-5,5-dimethyl-benzo[h]quinazoline-4,7-diamine]
< 1.5 nM | 761 nM | COc1ccc2c(c1)/C(=N\OC[C@@H]1CN(C)C(=O)O1)C(C)(C)c1c(N)ncnc1-2 [Example 50, (5S)-5-[[(Z)-(4-amino-8-methoxy-5,5-dimethyl-benzo[h]quinazolin-6-ylidene)amino]oxymethyl]-3-methyl-oxazolidin-2-one]
7.26 nM | 511 nM | CC1(C)/C(=N/OC[C@@H]2CNC(=O)O2)c2cc(Br)ccc2-c2ncnc(N)c21 [Example 51, (5S)-5-[[(Z)-(4-amino-8-bromo-5,5-dimethyl-benzo[h]quinazolin-6-ylidene)amino]oxymethyl]oxazolidin-2-one]

SMILES | IC50 [1] | GI50 [2]
CC(C)CO/N=C1\c2cc(O[C@H]3CC[C@H](N)CC3)ccc2-c2ncnc(N)c2C1(C)C [Example 30, (6Z)-8-(trans-4-aminocyclohexoxy)-6-isobutoxyimino-5,5-dimethyl-benzo[h]quinazolin-4-amine] | 93.9 nM | 1560 nM
